Type in all cases: cell-based, Aspergillus niger
Experiment [1] deals with germinated spores of A. niger. As to the kind of experiment: Effect of CFW addition on growth of germlings. As to the method:
FIG. 3: Effect of CFW addition on growth of germlings. Germinated spores of A. niger were treated with increasing concentrations of CFW. Both the extend of hyphal tip swelling and the time required to resume growth is dependent on the concentration of CFW.
(§1) To identify genes that are induced upon cell wall stress, we have first investigated which cell wall perturbing compound was suited for this purpose. Finally, we used the antifungal compound Calcofluor White (CFW) to induce cell wall stress. […] Because of the defects in cell wall assembly, the cell wall is weakened en swells from internal pressure. Polarized growth is resumed after 2-4 hours. Both the effect of hyphal tip swelling and the time that is required to resume growth are dependent on the concentration of CFW (FIG. 3). To identify genes that are induced upon CFW treatment, mRNA has been isolated from germling that have been treated with or without CFW for various time intervals. […] These germlings were than treated with 200 μg/ml CFW. After 1, 2 and 4 hours after addition of CFW total RNA was isolated and used in Northern blot experiments (see FIG. 4). As a control, total RNA was isolated from germlings that were not treated with CFW. Several probes encoding putative proteins involved in cell wall biosynthesis have been analysed and quantified.

In experiment [2] the test system is fksA. As to the kind of experiment: Northern blot analysis of fksA expression in CFW stressed germlings. The note with it: in the presence of CFW (200 μg/ml). The method, then:
as §1
(§2) The highest induction was found for agsA. Thus, these genes are regulated by the promoter sequences as a response to the induced cell wall stress. Such promoters are suitable candidates for use as reporters. […] No signal could be detected for the other ags homologs.

The test system of experiment [3] is agsA promoter. As to the kind of experiment: PagsA-AmdS reporter strain growth on acetamide plates. As to conditions: 0.5 mg/ml CFW added to the plates. The text has this: Aspergillus niger grows poorly on acetamide as a nitrogen source. When additional copies of the amdS gene, encoding a acetamidase of A. nidulans are introduced, A. niger can grown on acetamide plates and the amdS gene can therefore be used as a selectable marker (Kelly and Hynes, 1985). The coding region of the amdS gene was fused to the agsA promoter sequence. Both the relatively low basal expression of the agsA gene and the high level of induction after CFW stress (over 20-fold) makes the agsA promoter a good candidate for use as a reporter. The reporter construct further comprises the amdS gene (A. nidulans) with its own terminator. For targeting to the pyrG locus of the A. niger strain AB4.1 (pyrG^−) the pyrG* gene is included in the construct (cf. Van Gorcum et al., 1988). […]
The construct was transformed to strain AB4.1 (a pyrG negative strain derived from N402) and transformants were selected on the presence of an intact pyrG gene. Wild type strain N402 and purified transformants (ABRD1.1-1.25 and ABRD2.1-2.15) were analysed were grown on acetamide and acrylamide plates. […] The majority of the transformants were analysed by Southern blotting to confirm correct integration of the construct.

Experiment [4] has as its system gfaA. As to the kind of experiment: Northern blot analysis of gfaA expression in CFW stressed germlings. The note with it: germlings treated with 200 μg/ml CFW; RNA 1, 2 and 4 hours after addition; vs untreated germlings. The method, then: as §1, §2

As for `O=S(=O)(O)c1cc(Nc2nc(Nc3ccccc3)nc(N(CCO)CCO)n2)ccc1/C=C/c1ccc(Nc2nc(Nc3ccccc3)nc(N(CCO)CCO)n2)cc1S(=O)(=O)O` [CFW, Calcofluor White], the “time until polarized growth is resumed” value in experiment [1] (after CFW treatment, dependent on CFW concentration) was in the range of 2 to 4 h. Moreover, in experiment [1] (treatment of germinating spores with CFW, concentration dependent), the “hyphal morphology of germinating spores” value was “formation of swollen hyphe”. Also, in experiment [2], the “expression level of fksA” value is “not significantly altered”. Also, the “growth of PagsA-AmdS transformants on acetamide plates” value in experiment [3] is “resulted in growth (and sporulation) for the majority of the transformants”. Besides, in experiment [4], the “increase in gfaA mRNA level” value is 4 fold.

Values taken from patent US20060088902A1, “Methods and materials for the identification of antifungal substrates in filamentous fungi” (priority 2001, published 2006).
